Reference: US12576044B2, “Treatment of Alzheimer's disease” (priority 2015, dated 2026)
Like-named read-outs stand apart in the source and are kept apart here.

Experiments:
[1] = target: T1, monomeric beta-amyloid 1-42 (Homo sapiens, UniProt P05067); assay: Thioflavin-T (ThT) assay, aggregate-prevention activity; assay type: biochemical; details: for aggregate-prevention activity: curcumin 0.1, 1.0 or 10 μM, resveratrol 10 μM, quercetin 10 μM, 60 minutes; for aggregate-prevention compared with positive control phenol red (PhR): curcumin at 1 μM, resveratrol at 10 μM
T1 construct: 5 ng monomeric beta-amyloid (1-42) (Anaspec, Fremont, CA); purchased Anaspec, Fremont, CA
Text: (§1) (A) De-aggregation activity of curcumin (C). […] (B) Aggregate-prevention activity of resveratrol (R), quercetin (Q), and curcumin (C).
(§2) The formation of beta-amyloid plaques in the brain is a major hallmark of Alzheimer's disease and is widely considered to be a key initial step in the disease progression. The aim of clinical trials for Alzheimer's disease has historically been to deaggregate or prevent the aggregation of beta-amyloid. Plaques are formed by aggregation of soluble monomeric beta-amyloid into insoluble oligomers, protofibrils, fibrils, and plaques. […] The most common method to evaluate beta-amyloid aggregation is the thioflavin-T (ThT) assay. ThT is a fluorescent probe that binds to beta-amyloid fibrils with specificity and is measurable at 482 nm when excited at 450 nm.
(§3) Curcumin (C) was evaluated at 0.1, 1.0, and 10 μM.

[2] = target: beta-amyloid (1-42) oligomers (Homo sapiens, UniProt P05067); assay: Thioflavin-T (ThT) assay, de-aggregation of pre-aggregated beta-amyloid; assay type: biochemical; details: for reduced aggregation of pre-aggregated beta-amyloid (1-42): over 8 days, 37° C.; for de-aggregation activity (words): 0.1, 1.0, 10 μM, 2 hours, 3 days, 8 days
Text: as §1, §2, §3

[3] = tested on: superactivated platelets (SAPs); assay: In vitro synergy analysis: SAP formation with and without R, Q, C combinations, flow cytometry, Combination Index (Chou-Talalay); assay type: cell-based, human
Experimental: The “effective amount” or “therapeutically effective amount” also may be determined by using methods known in the art such as the in vitro flow cytometry assay to evaluate the effectiveness of multiple RQC combinations on platelet activation. All possible combinations of pre-defined “low”, “medium”, and “high” doses of R, Q, and C, respectively, are tested to determine the optimal dose combination. […] A venipuncture sample of 10 mL of blood is obtained from each patient. Of the 10 mL, a 3 mL aliquot of blood is added to a tube containing 0.5 mL of acid-citrate-dextrose solution (38 mM citric acid, 75 mM sodium citrate, 135 mM glucose) to prevent clotting. […] The PRP is transferred to a new tube, leaving about 0.5 mL above the buffy coat layer. […] Platelets are then treated with biotinylated fibrinogen and stained with the following fluorophores: APC-streptavidin (APC-SA), FITC-PAC1, and PE-anti-CD41. PE-anti-CD41 recognizes the platelet-specific, transmembrane protein CD41. FITC-PAC1 identifies activated platelets by recognizing […] which increases its expression at the surface upon activation. APC-SA recognizes superactivated platelets that more readily bind the biotinylated fibrinogen to their surface. Each sample is analyzed by a Beckman Coulter CyAn flow cytometer (Beckman Coulter, Fullerton, CA). Results are analyzed by the Summit program (Beckman Coulter). […] Thus, abnormally high SAP levels are indicative of microvascular disease. […] To evaluate synergistic drug effects, the Combination Index (CI) theorem derived by Chou-Talalay was calculated for each combination product of R, Q, and C. The CI is useful in quantifying levels of synergism and antagonism. The theorem is based on the median-effect equation to provide a common link between a single entity and multiple entities. […] Baseline differences in untreated SAP levels can be adjusted for by evaluating the proportion of total platelets that are sensitive or resistant to treatment (Table 16). This technique adjusts for overall differences in SAP levels between various disease types. […] In AD subjects (n=9), the total number of platelets sensitive to RQC was higher than in healthy controls (n=20). […] The number of sensitive platelets was higher in AD subjects with higher SAP levels while the number of resistant platelets remained largely equivalent.

beta-amyloid fibrils = details: cited from earlier work
beta-amyloid oligomers = details: cited from earlier work
[4] = tested on: superactivated platelets (SAPs); assay: SAP inhibition by combinatorial drug treatment (flow cytometry of platelet rich plasma activated with thrombin and convulxin); assay type: cell-based, human; details: 10 μM, 30 minutes at 37° C., normalized relative to Control
Experimental: A venipuncture sample of 10 mL of blood is obtained from each patient. Of the 10 mL, a 3 mL aliquot of blood is added to a tube containing 0.5 mL of acid-citrate-dextrose solution (38 mM citric acid, 75 mM sodium citrate, 135 mM glucose) to prevent clotting. […] After centrifuging at 1100 rpm for 10 minutes at room temperature, platelet rich plasma (PRP), which is the upper layer, is removed. The PRP is transferred to a new tube, leaving about 0.5 mL above the buffy coat layer. The PRP-containing tube is incubated with 10 μL of thrombin and convulxin, two agonists that activate the platelets, for five minutes. Platelets are then treated with biotinylated fibrinogen and stained with the following fluorophores: APC-streptavidin (APC-SA), FITC-PAC1, and PE-anti-CD41. PE-anti-CD41 recognizes the platelet-specific, transmembrane protein CD41. FITC-PAC1 identifies activated platelets by recognizing […] which increases its expression at the surface upon activation. APC-SA recognizes superactivated platelets that more readily bind the biotinylated fibrinogen to their surface.
All fluorophores are excited at 488 nm by argon laser of the flow cytometer. Their emission spectra are well separated, thereby allowing simultaneous, multi-color immunofluorescence measurements.
Each sample is analyzed by a Beckman Coulter CyAn flow cytometer (Beckman Coulter, Fullerton, CA). Results are analyzed by the Summit program (Beckman Coulter). Data analysis is conducted for SAPs after flow cytometry using the Summit program to determine the relative percentages of each of these groups per sample. The SAPs are expressed as a percentage of the total number of events in the sample.
Isolation and flow cytometry of SAPs was performed according to the procedure described in Example 1, above.
Aliquots of platelet rich plasma (PRP) were incubated with aqueous saline solutions of resveratrol only, quercetin only, […], and with an admixture of resveratrol, quercetin and curcumin for a time period of 30 minutes at 37° C. Thereafter the obtained PRP samples were irradiated by an argon laser at […]. Multi-color immunofluorescence was noted, and analyzed as described in Example 1, above.

T1 sequence (P05067 672-713 limits assumed): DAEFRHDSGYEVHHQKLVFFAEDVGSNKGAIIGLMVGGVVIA
Chain of beta-amyloid (1-42) oligomers (P05067 672-713 limits assumed): as above

COc1cc(/C=C/C(=O)CC(=O)/C=C/c2ccc(O)c(OC)c2)ccc1O [Curcumin, (1E,6E)-1,7-bis(4-Hydroxy-3-methoxyphenyl)-1,6-heptadiene-3,5-dione]
aggregate-prevention activity [1]: inhibited the formation of new beta-amyloid aggregates | aggregate-prevention compared with positive control phenol red (PhR) [1]: approximately as effective as the positive control phenol red | reduced aggregation of pre-aggregated beta-amyloid (1-42) ([2]; 0.1 μM): about 18.6% | reduced aggregation of pre-aggregated beta-amyloid (1-42) ([2]; 1.0 μM): ~51.8% | reduced aggregation of pre-aggregated beta-amyloid (1-42) ([2]; 10 μM): ~64.7% | de-aggregation activity (words) [2]: de-aggregated beta-amyloid oligomers in a dose-dependent manner at all time points | de-aggregation activity (words) ([2]; listed as curcumin): dose-dependently de-aggregated existing beta-amyloid oligomers | % Change ([3]; C 0.01 μM, AD patient): −11% | SAP % ([3]; C 0.01 μM, AD patient): 32.5% | % Change ([3]; C 0.1 μM, AD patient): −18% | SAP % ([3]; C 0.1 μM, AD patient): 30.0% | % Change ([3]; C 1 μM, AD patient): −37% | SAP % ([3]; C 1 μM, AD patient): 23.2% | % Change ([3]; control subject, C 0.01 μM): −2% | SAP % ([3]; control subject, C 0.01 μM): 36.6% | % Change ([3]; control subject, C 0.1 μM): −7% | SAP % ([3]; control subject, C 0.1 μM): 34.6% | % Change ([3]; control subject, C 1 μM): −12% | SAP % ([3]; control subject, C 1 μM): 32.9% | IC50 (beta-amyloid fibrils): 1000 nM | IC50 (beta-amyloid oligomers): 800 nM

Oc1ccc(/C=C/c2cc(O)cc(O)c2)cc1 [Resveratrol, 3,5,4′-trihydroxy-trans-stilbene]
aggregate-prevention activity [1]: inhibited the formation of new beta-amyloid aggregates | aggregate-prevention compared with positive control phenol red (PhR) [1]: approximately as effective as the positive control phenol red | % Reduction in SAPs [4]: 46.6% | % SAPs [4]: 53.4% | % Change ([3]; R 1 μM, AD patient): −9% | SAP % ([3]; R 1 μM, AD patient): 33.6% | % Change ([3]; R 5 μM, AD patient): −17% | SAP % ([3]; R 5 μM, AD patient): 30.5% | % Change ([3]; R 10 μM, AD patient): −19% | SAP % ([3]; R 10 μM, AD patient): 29.9% | % Change ([3]; control subject, R 1 μM): −9% | SAP % ([3]; control subject, R 1 μM): 33.9% | % Change ([3]; control subject, R 5 μM): −24% | SAP % ([3]; control subject, R 5 μM): 28.2% | % Change ([3]; control subject, R 10 μM): −29% | SAP % ([3]; control subject, R 10 μM): 26.3%

O=c1c(O)c(-c2ccc(O)c(O)c2)oc2cc(O)cc(O)c12 [Quercetin, 3,3′,4′5,7-pentahydroxy-2-phenylchromen-4-one]
aggregate-prevention activity [1]: inhibited the formation of new beta-amyloid aggregates | % Reduction in SAPs [4]: 77.8% | % SAPs [4]: 22.2% | Half-life (in vivo; cited from earlier work): 3 to 17 h | Bioavailability (oral, estimation; cited from earlier work): 0.2-0.3% | Bioavailability (oral; estimation; cited from earlier work): 0.2-0.3% | % Change ([3]; Q 1 μM, AD patient): −7% | SAP % ([3]; Q 1 μM, AD patient): 34.3% | % Change ([3]; Q 5 μM, AD patient): −27% | SAP % ([3]; Q 5 μM, AD patient): 26.7% | % Change ([3]; Q 10 μM, AD patient): −44% | SAP % ([3]; Q 10 μM, AD patient): 20.6% | % Change ([3]; control subject, Q 1 μM): −8% | SAP % ([3]; control subject, Q 1 μM): 34.2% | % Change ([3]; control subject, Q 5 μM): −13% | SAP % ([3]; control subject, Q 5 μM): 32.5% | % Change ([3]; control subject, Q 10 μM): −23% | SAP % ([3]; control subject, Q 10 μM): 28.6%
